Assay results: patent US20110126300A1, “High Through-Put Method of Screening Compounds for Pharmacological Activity” (priority 2005, published 2011)

Tests used:
[1] = tested on: wild type zebrafish larvae; assay: PTZ-induced seizure assay in larvae; assay type: in vivo; details: PTZ 15 uM, 4 day post-fertilization wild type larvae
Experimental: To assay small molecule compounds with anti-seizure activity, 4 day post-fertilization wild type zebrafish were placed in 96-well plates (5 larvae per well) and incubated in the test compounds (20 uM) as above, for either 2 or 12 hrs. Subsequently, the larvae were administered pentylenetetrazole (PTZ; 15 uM) and observed for seizure activity (i.e., a change in phenotype). […] This activity persists for approximately 20 minutes and then culminates in a tonic convulsion that abolishes movement and normal posture. Prior to or after onset of the seizure activity, the small molecule test compound was administered to the larvae and the response of the fish assessed visually or by digital recording.
Scoring was based upon whether the test compound was able to inhibit or modify the seizure activity of the larvae.

[2] = tested on: wild type zebrafish larvae; assay: Wild type larvae exposed to compound, PED6 imaging of intestine contour; assay type: in vivo, zebrafish (Danio rerio); details: 6 dpf wild type larvae, 2 hour exposure to PED6; FIG. 2B
Experimental: FIGS. 2A-2D photographically show lateral fluorescent images of 6 dpf zebrafish larvae following 2 hour exposure to fluorescent lipid PED6.
For rescue experiments, 1-cell stage embryos derived from pair-wise mating of heterozygous mlt carriers were injected with either the MT-mmpa, morpholino alone or in combination with the β4 integrin morpholino. Subsequently, all embryos were injected with either 0.375 or 0.1875 pg of tissue inhibitor of metalloproteinases 2 (TIMP2 inhibitor) (PF021; Oncogene Research Products, now Calbiochem, San Diego, Calif.) at 48 hpf. Alternatively, 2.5 dpf or 3 dpf larvae were incubated in the TGF-β Type I receptor inhibitor SB 431542, 100 μM in embryo media. Morpholino sequences were as identified in Wallace et al., supra, 2005b for smooth muscle myosin heavy chain, β4 integrin, and MT-mmpa.

[3] = tested on: meltdown (mlt) mutant larvae; assay: Rescue of the mlt mutant phenotype by compound exposure, read out with fluorescent lipid PED6 in the posterior intestine; assay type: in vivo, zebrafish (Danio rerio)
Experimental: For testing, the embryos were then cultured in the presence of the test compound(s) overnight or up to 96 hrs at 28.5° C., for example, in 96-well plates. Mutant larvae and mutants reared in the presence of small molecule compounds may be bathed in the fluorescent lipid PED6 or fluorescent microspheres, which outline the digestive tract lumen and can be seen by visual inspection or by a commercially-available fluorescent plate scanner, typically by 96-120 hours post fertilization (hpf). Although signals that regulate regional epithelial differentiation and renewal are poorly understood, in meltdown (mlt), the posterior gut is disorganized and bears an expanded mesenchyme (Briggs, Am. J. Physiol. Regulatory Integrative Comp. Physiol. 282: R3-9 (2002)). Neither fluorescent marker enters the posterior intestine of mlt mutants because the intestinal lumen is obstructed by the massive cysts that form in all mlt mutant larvae.
No effect: A test compound was considered to have no effect if none of the mlt mutant larvae show fluorescent lipid in the posterior intestine.
When no mutants were observed, one possibility was that the test compound produced a complete rescue of the mutant phenotype. The other possibility was that there were never any mutants present in the well. When embryos derived from matings of heterozygous mlt/+ fish are used for these assays, then with 8-10 embryos per test compound, the latter possibility may be calculated to occur with a frequency of 0.01%.
Partial rescue: Partial rescue was considered when mutants or the mutant phenotype was present, but the fluorescent markers were present in the posterior intestine.
In the present assays, mosaic zebrafish were generated in which homozygous mlt/mlt cells have replaced the native germline of wild type fish. 100% of the offspring derived from pair wise matings of such modified zebrafish are homozygous for the mlt mutation. Thus, all of the larvae placed in each well of the 96-well plate are mlt mutants, greatly enhancing the efficiency of each assay. […]

C1CCc2nnnn2CC1 [PTZ, pentylenetetrazole] was tested, and the “duration of seizure activity before tonic convulsion” value [1] was “approximately 20 minutes”.

For NC(=O)c1ccc(-c2nc(-c3ccc4c(c3)OCO4)c(-c3ccccn3)[nH]2)cc1 [SB431542], the “intestine contour in wild type larvae” value [2] was “normal intestine contour”, the “posterior intestinal PED6 fluorescence and intestine contour in mlt larvae” value ([3]; 6 dpf mlt larvae, 2 hour exposure to PED6, FIG. 2D) was “posterior intestinal fluorescence and the contour is normal” and the “rescue of the mlt mutant phenotype (fluorescent lipid in posterior intestine)” value ([3]; compound added ~60 hpf, PED6 at 96 hpf, imaged at 120 hpf) was “rescuing the mutant phenotype”. For the same molecule, the “intestinal cysts versus untreated mlt larvae” value ([3]; mlt larvae scored at 5 dpf, treated at 2.5 dpf or 3 dpf, 100 μM in embryo media) was “far fewer cysts than untreated mlt larvae”.
